The values that follow come from patent US7148200B2, “Method for treating cancer” (Toyo Suisan Kaisha, Ltd., priority 1999, dated 2006).

The target in the experiment is T1, DNA polymerase α (Bos taurus, UniProt A0AAA9TD94).
T1 construct: from tissue; host or cells: bovine thymus
T1 sequence (A0AAA9TD94 1-1441): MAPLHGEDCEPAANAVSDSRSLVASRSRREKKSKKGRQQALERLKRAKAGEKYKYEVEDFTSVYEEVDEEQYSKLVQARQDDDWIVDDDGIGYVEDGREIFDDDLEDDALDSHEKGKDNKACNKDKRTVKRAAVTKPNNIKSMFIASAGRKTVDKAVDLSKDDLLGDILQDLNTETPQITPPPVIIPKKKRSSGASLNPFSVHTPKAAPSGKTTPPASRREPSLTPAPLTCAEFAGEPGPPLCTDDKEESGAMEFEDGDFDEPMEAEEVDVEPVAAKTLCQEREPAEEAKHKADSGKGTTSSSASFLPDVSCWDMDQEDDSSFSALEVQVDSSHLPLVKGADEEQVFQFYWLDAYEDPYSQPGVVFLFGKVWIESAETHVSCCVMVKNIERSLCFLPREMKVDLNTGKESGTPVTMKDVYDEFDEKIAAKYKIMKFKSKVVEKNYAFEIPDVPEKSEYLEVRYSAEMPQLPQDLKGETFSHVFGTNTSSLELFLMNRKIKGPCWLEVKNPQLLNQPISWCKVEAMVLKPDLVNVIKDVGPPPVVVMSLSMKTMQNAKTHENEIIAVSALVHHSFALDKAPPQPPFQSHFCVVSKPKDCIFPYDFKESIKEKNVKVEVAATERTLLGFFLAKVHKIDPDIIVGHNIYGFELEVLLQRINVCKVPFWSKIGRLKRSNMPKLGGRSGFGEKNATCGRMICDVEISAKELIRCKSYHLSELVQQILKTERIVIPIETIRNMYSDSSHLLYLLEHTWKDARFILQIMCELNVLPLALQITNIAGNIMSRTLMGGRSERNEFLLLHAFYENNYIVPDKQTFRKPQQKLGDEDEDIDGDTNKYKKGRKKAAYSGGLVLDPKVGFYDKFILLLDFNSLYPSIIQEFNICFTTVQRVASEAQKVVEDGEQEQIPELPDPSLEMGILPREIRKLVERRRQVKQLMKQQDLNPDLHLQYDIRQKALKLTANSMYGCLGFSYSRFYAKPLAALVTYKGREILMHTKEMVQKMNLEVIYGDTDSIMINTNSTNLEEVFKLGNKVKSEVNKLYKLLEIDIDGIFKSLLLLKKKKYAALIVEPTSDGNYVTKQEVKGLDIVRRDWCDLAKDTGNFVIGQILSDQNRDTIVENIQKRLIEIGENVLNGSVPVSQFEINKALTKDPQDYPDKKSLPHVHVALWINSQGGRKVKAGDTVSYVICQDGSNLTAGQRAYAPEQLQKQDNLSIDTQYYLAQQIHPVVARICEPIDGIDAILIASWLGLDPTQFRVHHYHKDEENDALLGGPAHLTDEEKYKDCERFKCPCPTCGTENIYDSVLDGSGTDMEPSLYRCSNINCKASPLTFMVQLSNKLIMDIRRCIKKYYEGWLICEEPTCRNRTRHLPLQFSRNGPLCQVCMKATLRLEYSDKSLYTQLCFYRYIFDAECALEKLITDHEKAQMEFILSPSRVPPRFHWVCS
Description: Assay 1: inhibitory effect against DNA polymerase α ([3H]-dTTP incorporation). Type of experiment: biochemical. The following applies: DNA polymerase α from bovine thymus, 37° C., 60 minutes. The procedure:
An assay on inhibitory effect against a DNA polymerase α was carried out in the following manner.
0.05 U of a DNA polymerase α purified and isolated from a bovine thymus by an immunoaffinity column was mixed with each of test compounds, sulfopyranosylacylglycerol (hereinafter, simply referred to as “SQAG”) derivatives, namely, SQAG 1, SQAG 2 and SQAG 3 (listed in table 1) dissolved in DMSO. Each mixture was added with a buffer containing inorganic salts for the enzymatic reaction, [^3H]-labeled dTTP and compounds for reaction containing a template DNA strand, and incubated at 37° C. for 60 minutes.
After the enzymatic reaction was quenched, the resultant reaction product was fixed on a dedicated filter and subjected to measurement by a liquid scintillation counter. The amount of enzymatically incorporated dTTP was calculated as a radiation dose (cpm) of [^3H]. Note that, each of the sulfopyranosylacylglycerol derivatives is a mixture of the S- and R-configurations with respect to an absolute configuration of the carbon of the 2-position of the glycerol moiety.

Where a name gives a salt, the structure may show the parent alone.

In general, IC50 refers to the concentration at which inhibition is half-maximal. A higher IC50 goes with weaker potency in that assay.

In the case of `CCCC/C=C\CCCCCCCC(=O)OCC(O)CO[C@H]1O[C@H](CS(=O)(=O)O)[C@@H](O)[C@H](O)[C@H]1O` (mixture of isomers) [SQAG1, 3-O-(6-deoxy-6-sulfo-α-D-glucopyranosyl)-1-o-myristoleoly-glycerol sodium salt], the IC50 was 17.1 µM. In other words, the double-digit micromolar range.
Regarding `CCCCCC/C=C\CCCCCCCC(=O)OCC(O)CO[C@H]1O[C@H](CS(=O)(=O)O)[C@@H](O)[C@H](O)[C@H]1O` (stereo partly drawn) [SQAG2, 3-O-(6-deoxy-6-sulfo-α-D-glucopyranosyl)-1-O-palmitoleoyl-glycerol sodium salt], half-maximal inhibition (IC50) required 9.54 µM. This IC50 lies about 1.8-fold lower than the previous one.
The value for `CCCCCCCC/C=C\CCCCCCCC(=O)OCC(O)CO[C@H]1O[C@H](CS(=O)(=O)O)[C@@H](O)[C@H](O)[C@H]1O` (stereo partly drawn) [SQAG3, 3-O-(6-deoxy-6-sulfo-α-D-glucopyranosyl)-1-O-oleoyl-glycerol Sodium Salt] was 3.31 µM.
